{"source": "patent US11458150B2", "about": "(priority 2019, dated 2022)", "origin": "cited, not measured here", "system": "pellagra patients", "settings": "in vivo", "data": [{"smiles": "O=C(O)c1cccnc1", "note": "[nicotinic acid]", "values": [{"measurement": "effect on symptoms of pellagra", "result": "disappearance of many symptoms of the disease"}, {"measurement": "time to blanching of acute erythematous dermal lesions with intact epithelium", "result": "≤ 48", "unit": "h"}]}]}
